Data taken from US20240043435A1, “TYK-2 INHIBITOR” (BEIGENE, LTD., priority 2020, published 2024).

Tests used:
[1] = tested on: JAK2, TYK2/p-STAT4 (Tyr693) activated by IL-12 in NK-92 cell line; assay: IL-12-JAK2, TYK2/p-STAT4 (Tyr693) inhibition IC50 cellular assay; format: cell-based; conditions: for IC50: NK92, Cellular assay, read-out: pSTAT4/IL-12 IC50; for Selectivity fold (TYK2/JAK2): Cellular assay, pSTAT5/GM-CSF IC50 vs pSTAT4/IL-12 IC50
Summary of the method: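 p-STAT4 (Tyr693) in lysates was measured by AlphaLISA SureFire Ultra after a 30 min IL-12 challenge (40 ng/ml final) at 37° C. Overnight-starved, IL-2-free NK-92 cells had been pretreated 1 h with compound at 10000 to 0.61 nM (4-fold, 8 points). IC50 values came from four-parameter logistic fitting.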

[2] = target: T1, TYK2-JH2 (aa 575-869, in-house) protein (Homo sapiens, UniProt P29597); assay: TYK2-JH2 biochemical assay (HTRF probe displacement); format: binding; conditions: Biochemical assay; read-out: TYK2-JH2 IC50
T1 construct: TYK2-JH2 (aa 575-869, in-house) protein; made in house
Summary of the method: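 HTRF probe-displacement format: compound dilutions (10 points, 5-fold, from 500 uM in DMSO at 500×) were combined with 0.2 nM TYK2-JH2 protein for 0.5 h at room temperature in HEPES pH 7.5 buffer with MgCl2, BSA, DTT and Brij-35. Percent inhibition came from the 615/665 nm fluorescence ratio, fitted to a four-parameter logistic for IC50.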

[3] = tested on: pSTAT5/GM-CSF; assay: pSTAT5/GM-CSF cellular assay (JAK2 selectivity); format: cell-based; conditions: for Selectivity fold (TYK2/JAK2): pSTAT5/GM-CSF IC50 over pSTAT4/IL-12 IC50

T1 sequence (P29597 575-869): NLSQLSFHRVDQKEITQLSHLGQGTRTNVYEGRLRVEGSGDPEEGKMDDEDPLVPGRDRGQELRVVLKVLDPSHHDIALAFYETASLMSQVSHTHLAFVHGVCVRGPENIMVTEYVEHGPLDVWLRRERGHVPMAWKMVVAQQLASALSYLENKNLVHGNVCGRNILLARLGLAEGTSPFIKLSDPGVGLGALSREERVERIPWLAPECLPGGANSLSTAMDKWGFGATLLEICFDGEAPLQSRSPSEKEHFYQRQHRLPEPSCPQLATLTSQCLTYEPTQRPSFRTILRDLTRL

Row | Compound | IC50 [1] | IC50 [2] | IC50 [3] | Selectivity fold (TYK2/JAK2) [3] | Selectivity fold (TYK2/JAK2) [1]
1 | CC(=O)Nc1cc(Nc2cc(C)cc(S(C)(=O)=O)n2)c(-c2ccco2)cn1 [Example A9, N-(5-(furan-2-yl)-4-((4-methyl-6-(methylsulfonyl)pyridin-2-yl)amino)pyridin-2-yl)acetamide] | 1.33 nM | 0.041 nM | > 10000 nM | – | >7518 fold
2 | CC(=O)Nc1cc(Nc2cc(OCCO)cc(S(C)(=O)=O)n2)c(-c2ccc(C(F)(F)F)cn2)cn1 [Example F12, N-(4′-((4-(2-hydroxyethoxy)-6-(methylsulfonyl)pyridin-2-yl)amino)-5-(trifluoromethyl)-[2,3′-bipyridin]-6′-yl)acetamide] | 1.35 nM | 0.034 nM | > 10000 nM | – | >7407 fold
3 | COCc1cc(Nc2cc(NC(C)=O)ncc2-c2ccn(C)n2)nc(S(C)(=O)=O)c1 [Example J19, N-(4-((4-(methoxymethyl)-6-(methylsulfonyl)pyridin-2-yl)amino)-5-(1-methyl-1H-pyrazol-3-yl)pyridin-2-yl)acetamide] | 0.882 nM | 0.015 nM | > 10000 nM | >1137 fold | –
4 | COCCOc1cc(Nc2cc(NC(C)=O)ncc2-c2ccn(C)n2)nc(S(C)(=O)=O)c1 [Example J12, N-(4-((4-(2-methoxyethoxy)-6-(methylsulfonyl)pyridin-2-yl)amino)-5-(1-methyl-1H-pyrazol-3-yl)pyridin-2-yl)acetamide] | 0.847 nM | 0.017 nM | > 10000 nM | >11806 fold | –
5 | CC(=O)Nc1cc(Nc2cc(OC(F)F)cc(S(C)(=O)=O)c2)c(-c2ccn(C)n2)cn1 [Example J62, N-(4-((3-(difluoromethoxy)-5-(methylsulfonyl)phenyl)amino)-5-(1-methyl-1H-pyrazol-3-yl)pyridin-2-yl)acetamide] | 4.85 nM | 0.037 nM | > 10000 nM | >2061 fold | –
6 | CC(=O)Nc1cc(Nc2cc(OC(C)C)cc(S(C)(=O)=O)n2)c(-c2ccn(CCO)n2)cn1 [Example A14, N-(5-(1-(2-hydroxyethyl)-1H-pyrazol-3-yl)-4-((4-isopropoxy-6-(methylsulfonyl)pyridin-2-yl)amino)pyridin-2-yl)acetamide] | 0.969 nM | 0.022 nM | > 10000 nM | – | >10319 fold
7 | CC(=O)Nc1cc(Nc2cccc(S(C)(=O)=O)n2)c(-c2cc(Cl)c(C(C)(C)O)cn2)cn1 [Example B17, N-(4-chloro-5-(2-hydroxypropan-2-yl)-4′-((6-(methylsulfonyl)pyridin-2-yl)amino)-[2,3′-bipyridin]-6′-yl)acetamide] | 2.05 nM | 0.035 nM | > 10000 nM | – | >4878 fold
8 | CCOc1cc(Nc2cc(NC(C)=O)ncc2-c2ccc(C(C)(C)O)cn2)nc(S(C)(=O)=O)c1 [Example H33, N-(4′-((4-ethoxy-6-(methylsulfonyl)pyridin-2-yl)amino)-5-(2-hydroxypropan-2-yl)-[2,3′-bipyridin]-6′-yl)acetamide] | 0.777 nM | 0.019 nM | > 10000 nM | – | >22371 fold
9 | COCc1ccc(-c2cnc(NC(C)=O)cc2Nc2cc(O[C@H]3C[C@H](O)C3)cc(S(C)(=O)=O)n2)nc1 [Example E8, N-(4′-((4-((1r,3r)-3-hydroxycyclobutoxy)-6-(methylsulfonyl)pyridin-2-yl)amino)-5-(methoxymethyl)-[2,3′-bipyridin]-6′-yl)acetamide] | 2.86 nM | 0.034 nM | > 10000 nM | – | >3496 fold
10 | CC(=O)Nc1cc(Nc2cc(OC(C)C)cc(S(C)(=O)=O)n2)c(-c2ccc(C#N)cn2)cn1 [Example A17, N-(5-cyano-4′-((4-isopropoxy-6-(methylsulfonyl)pyridin-2-yl)amino)-[2,3′-bipyridin]-6′-yl)acetamide] | 1.64 nM | 0.028 nM | > 10000 nM | – | >6097 fold
11 | COCCOc1ccc(-c2cnc(NC(C)=O)cc2Nc2cccc(S(C)(=O)=O)n2)nc1 [Example D1, N-(5-(2-methoxyethoxy)-4′-((6-(methylsulfonyl)pyridin-2-yl)amino)-[2,3′-bipyridin]-6′-yl)acetamide] | 0.251 nM | 0.047 nM | > 10000 nM | – | >39840 fold
12 | CC(=O)Nc1cc(Nc2cc(OC(C)C)cc(S(C)(=O)=O)n2)c(-c2ccc(C(C)(C)O)cn2)cn1 [Example H2, N-(5-(2-hydroxypropan-2-yl)-4′-((4-isopropoxy-6-(methylsulfonyl)pyridin-2-yl)amino)-[2,3′-bipyridin]-6′-yl)acetamide] | 0.939 nM | 0.036 nM | > 10000 nM | – | >10649 fold
13 | CC(=O)Nc1cc(Nc2cc(F)cc(S(C)(=O)=O)c2)c(-c2ccn(C)n2)cn1 [Example J30, N-(4-((3-fluoro-5-(methylsulfonyl)phenyl)amino)-5-(1-methyl-1H-pyrazol-3-yl)pyridin-2-yl)acetamide] | 4.82 nM | 0.054 nM | > 10000 nM | >2074 fold | –
14 | CC(=O)Nc1cc(Nc2cc(O[C@H]3C[C@H](O)C3)cc(S(C)(=O)=O)c2)c(-c2ccn(C)n2)cn1 [Example J37, N-(4-((3-((trans)-3-hydroxycyclobutoxy)-5-(methylsulfonyl)phenyl)amino)-5-(1-methyl-1H-pyrazol-3-yl)pyridin-2-yl)acetamide] | 19.1 nM | 0.035 nM | > 10000 nM | >523 fold | –

Second part, led by results:

Row | IC50 [1] | IC50 [2] | IC50 [3] | Compound | Selectivity fold (TYK2/JAK2) [3] | Selectivity fold (TYK2/JAK2) [1]
15 | 1.79 nM | 0.047 nM | > 10000 nM | CC(=O)Nc1cc(Nc2cc(-c3cnccc3C)cc(S(C)(=O)=O)n2)c(-c2ccc3c(n2)OCC(C)(C)O3)cn1 [Example Q62, N-(5-(2,2-dimethyl-2,3-dihydro-[1,4]dioxino[2,3-b]pyridin-6-yl)-4-((4-methyl-6′-(methylsulfonyl)-[3,4′-bipyridin]-2′-yl)amino)pyridin-2-yl)acetamide] | >5586 fold | –
16 | 3.85 nM | 0.035 nM | > 10000 nM | COc1cc(Nc2cc(NC(C)=O)ncc2-c2ccn(C(C)C)n2)cc(S(C)(=O)=O)c1 [Example M27, N-(5-(1-isopropyl-1H-pyrazol-3-yl)-4-((3-methoxy-5-(methylsulfonyl)phenyl)amino)pyridin-2-yl)acetamide] | >2597 fold | –
17 | 1.14 nM | 0.023 nM | > 10000 nM | CC(=O)Nc1cc(Nc2cc(C)cc(S(C)(=O)=O)n2)c(-c2ccc3c(n2)OCCO3)cn1 [Example Q3, N-(5-(2,3-dihydro-[1,4]dioxino[2,3-b]pyridin-6-yl)-4-((4-methyl-6-(methylsulfonyl)pyridin-2-yl)amino)pyridin-2-yl)acetamide] | >8771 fold | –
18 | 1.69 nM | 0.035 nM | > 10000 nM | CCn1ccc(-c2cnc(NC(C)=O)cc2Nc2nc(S(C)(=O)=O)ccc2OC(C)C)n1 [Example M21, N-(5-(1-ethyl-1H-pyrazol-3-yl)-4-((3-isopropoxy-6-(methylsulfonyl)pyridin-2-yl)amino)pyridin-2-yl)acetamide] | >5917 fold | –
19 | 1.12 nM | 0.016 nM | 7010 nM | COCCOc1cc(Nc2cc(NC(C)=O)ncc2-c2cc(N3CCOCC3)n(C)n2)nc(S(C)(=O)=O)c1 [Example O2, N-(4-((4-(2-methoxyethoxy)-6-(methylsulfonyl)pyridin-2-yl)amino)-5-(1-methyl-5-morpholino-1H-pyrazol-3-yl)pyridin-2-yl)acetamide] | 6265 fold | –
20 | 15.2 nM | 0.096 nM | > 10000 nM | CC(=O)Nc1cc(Nc2cc(C(F)(F)F)cc(S(C)(=O)=O)c2)c(-c2ccn(C(C)C)n2)cn1 [Example M25, N-(5-(1-isopropyl-1H-pyrazol-3-yl)-4-((3-(methylsulfonyl)-5-(trifluoromethyl)phenyl)amino)pyridin-2-yl)acetamide] | >659 fold | –
21 | 0.91 nM | 0.023 nM | > 10000 nM | CC(=O)Nc1cc(Nc2cc(C)cc(S(C)(=O)=O)n2)c(-c2cc3c(cn2)OCCO3)cn1 [Example Q18, N-(5-(2,3-dihydro-[1,4]dioxino[2,3-c]pyridin-7-yl)-4-((4-methyl-6-(methylsulfonyl)pyridin-2-yl)amino)pyridin-2-yl)acetamide] | >10989 fold | –
22 | 0.685 nM | 0.029 nM | 1640 nM | CO[C@H]1CCCN(c2cc(Nc3cc(NC(C)=O)ncc3-c3ccc4c(n3)OCC(C)(C)O4)nc(S(C)(=O)=O)c2)C1 [Example Q65, (S)-N-(5-(2,2-dimethyl-2,3-dihydro-[1,4]dioxino[2,3-b]pyridin-6-yl)-4-((4-(3-methoxypiperidin-1-yl)-6-(methylsulfonyl)pyridin-2-yl)amino)pyridin-2-yl)acetamide] | 2397 fold | –
